Test results: patent publication US5032597A, “Method of using phenylquinolinecarboxylic acids and derivatives for lymthoid leukemia treatment in a mammal” (priority 1987, dated 1991)
Values after ≈ are worked out from the molar mass of the structure shown. Values joined by “and” are separate entries in the source; they are usually repeats but may differ in a detail not shown here. Identical values can stand only once. Like-named read-outs stand apart in the source and are kept apart here.

How the values were obtained:
[1] = system: L1210 leukemia; test: Lymphoid Leukemia L1210, survival of tumored mice; assay type: in vivo, CD2F1 mice; details: for response vs control in vivo at 200 mg/kg: 200 mg/kg i.p.; for response vs control in vivo at 300 mg/kg: 300 mg/kg i.p.; for response vs control in vivo at 400 mg/kg: 400 mg/kg i.p.
Procedure, shortened: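 Male CD2 F1 mice, six per group, received 10^5 L1210 cells i.p. on day 0. Compounds in hydroxypropylcellulose, saline/Tween 80 or saline were given i.p. at various doses once daily on days 1-9, with vehicle controls.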

[2] = system: human colon carcinoma cells HCT-15; test: Human colon tumor test in vitro, HCT-15 cell growth inhibition; assay type: cell-based; details: HCT-15 cells, compound day 1 to day 4; for IC50: Homo sapiens, HCT-15, 72 h, read-out: in vitro HCT-15 ID50 (50 percent inhibition of number of doublings); for in vitro HCT-15 ID50 (50 percent inhibition of number of doublings): 4320 min
Description: The compound of this invention were also tested for their ability to inhibit the growth of human colon carcinoma cells in vitro.
The human colon carcinoma cells, designated HCT-15, were derived from a specimen of an adenocarcinoma of human colon removed during surgery. The cells were grown in Roswell Park Medical Institute (RPMI) Medium 1640 supplemented with 10% heat inactivated fetal calf serum, penicillin (100 units/ml), streptomycin (100 μg/ml), gentamicin (20 μg/ml), fungizone (25 μg/ml), 0.075 percent sodium bicarbonate, […] 4-(2-hydroxyethyl)-1-piperazineethanesulfonic acid and […] N-tris(hydroxymethyl)methylglycine. […] On day 1 cells from sample dishes were harvested using trypsin (0.25%) treatment and counted with a hemocytometer to determine the number of cells per dish at the time of the addition of the compounds. Compounds of this invention were added in varying concentrations to other cultures. On day 4, treated and control cultures were harvested by trypsin treatment and the number of cells was determined. The number of doublings for the control cells was determined from the cell numbers on days 1 and 4. The ID50, the concentration of compound required to inhibit by 50 percent the number of doublings, was then calculated from the dose-response curve in which cell numbers were plotted on log-log paper against compound concentrations in micrograms per ml.

[3] = Mus musculus, L1210, ip, 720 h, 37.5 mg/kg i.p., nonoptimal Q1DX9 instead of Q3DX9, read-out: L1210 Leukemia % T/C (median survival time)
[4] = Mus musculus, L1210, ip, 720 h, 25 mg/kg i.p., read-out: L1210 Leukemia % T/C (median survival time)
[5] = Mus musculus, L1210, ip, 720 h, read-out: L1210 Leukemia % T/C (median survival time)
[6] = Mus musculus, L1210, ip, 720 h, 100 mg/kg i.p., read-out: L1210 Leukemia % T/C (median survival time)
[7] = Mus musculus, L1210, ip, 720 h, 75 mg/kg i.p., read-out: L1210 Leukemia % T/C (median survival time)
[8] = Mus musculus, L1210, ip, 720 h, 25 mg/kg i.p., nonoptimal Q1DX9 instead of Q3DX9, read-out: L1210 Leukemia % T/C (median survival time)

Compound	IC50 [2] [µg/mL]	in vitro HCT-15 ID50 (50 percent inhibition of number of doublings) [2]	other results
Cc1ccc(-c2ccc(-c3nc4ccc(F)c(Cl)c4c(C(=O)O)c3C)cc2)cc1 [Example 168]	0.04 (≈ 0.0986 µM)		L1210 Leukemia % T/C (median survival time) ([1]; 100 mg/kg i.p.): 148%
Cc1ccc2nc(-c3ccc(C4CCCCC4)cc3)c(C)c(C(=O)O)c2c1 [Example 96]		< 0.50 µg/mL	response vs control in vivo at 37.5 mg/kg [1, 3]: 97%
Cc1c(-c2ccc(Cc3ccccc3)cc2)nc2ccc(Cl)cc2c1C(=O)O [Example 112]	< 0.5		response vs control in vivo at 25 mg/kg [1, 4]: 128%
Cc1cc2c(C(=O)O)c(C)c(-c3ccc(-c4ccccc4)cc3)nc2cc1Cl [Example 58]		> 0.50 µg/mL	response vs control in vivo at 150 mg/kg ([1]; Mus musculus, L1210, ip, 720 h, 150 mg/kg i.p., read-out: L1210 Leukemia % T/C (median survival time)): 141%
Cc1c(-c2ccc(Oc3ccccc3)cc2)nc2ccc(Cl)cc2c1C(=O)O [Example 20]	< 0.5		response vs control in vivo at 200 mg/kg [1, 5]: 211%
Cc1ccc2nc(-c3ccc(-c4ccccc4)cc3)c(C)c(C(=O)O)c2c1Cl [Example 83]	> 1		response vs control in vivo at 100 mg/kg [1, 6]: 198%
Cc1ccc(-c2ccc(-c3nc4ccc(F)cc4c(C(=O)O)c3C)cc2)cc1Cl [Example 38]	> 1		response vs control in vivo at 200 mg/kg [1, 5]: 238%
Cc1c(-c2ccc(-c3ccccc3)cc2)nc2cc(F)ccc2c1C(=O)O [Example 87]	< 0.5		response vs control in vivo at 100 mg/kg [1, 6]: 146%
Cc1c(-c2cc(-c3ccccc3)cs2)nc2ccc(F)cc2c1C(=O)O [Example 44]	< 0.1		response vs control in vivo at 100 mg/kg [1, 6]: 136%
CCc1ccc2nc(-c3ccc(-c4ccccc4)cc3)c(C)c(C(=O)O)c2c1 [Example 51]	< 0.5		L1210 Leukemia % T/C (median survival time) ([1]; 75 mg/kg i.p.): 173%
CCc1ccc2nc(-c3ccc(-c4ccccc4)cc3)c(C)c(C(=O)O)c2c1 [Example 141]		< 0.50 µg/mL	L1210 Leukemia % T/C (median survival time) ([1]; 75 mg/kg i.p.): 139%
CSc1ccc2nc(-c3ccc(-c4ccccc4)cc3)c(C)c(C(=O)O)c2c1 [Example 161]	> 1		response vs control in vivo at 100 mg/kg [1, 6]: 148%
CCc1c(-c2ccc(C3CCCCC3)cc2)nc2ccc(C)cc2c1C(=O)O [Example 105]		0.33 µg/mL	response vs control in vivo at 12.5 mg/kg ([1]; Mus musculus, L1210, ip, 720 h, 12.5 mg/kg i.p., nonoptimal Q1DX9 instead of Q3DX9, read-out: L1210 Leukemia % T/C (median survival time)): 108%
Cc1c(-c2ccc(-c3ccccc3)cc2)nc2cc(Cl)c(Cl)cc2c1C(=O)O [Example 137]		> 5.00 µg/mL	response vs control in vivo at 50 mg/kg ([1]; Mus musculus, L1210, ip, 720 h, 50 mg/kg i.p., nonoptimal Q1DX9 instead of Q3DX9, read-out: L1210 Leukemia % T/C (median survival time)): 107%
Cc1c(-c2ccc(Oc3ccccc3)cc2)nc2cc(Cl)ccc2c1C(=O)O [Example 50]	> 5		response vs control in vivo at 100 mg/kg [1, 6]: 131%
Cc1c(-c2ccc(C3CCCCC3)cc2)nc2ccc(F)cc2c1C(=O)O [Example 181]		< 0.50 µg/mL	response vs control in vivo at 37.5 mg/kg [1, 3]: 108%
Cc1c(-c2ccc(-c3ccccc3)cc2)nc2ccc(Br)cc2c1C(=O)O [Example 52]	< 0.5		response vs control in vivo at 75 mg/kg [1, 7]: 189%
O=C(O)c1cc(-c2ccc(Oc3ccc(F)cc3)cc2)nc2ccc(F)cc12 [Example 187]	< 0.5		response vs control in vivo at 75 mg/kg [1, 7]: 131%
Cc1c(-c2ccc(-c3ccccc3)cc2)nc2c(Br)cc(Br)cc2c1C(=O)O [Example 60]	< 0.5		response vs control in vivo at 300 mg/kg [1, 5]: 192%

Compound	IC50 [2] [µg/mL]	in vitro HCT-15 ID50 (50 percent inhibition of number of doublings) [2]	other results
CCCCCCc1ccc(-c2nc3ccc(F)cc3c(C(=O)O)c2C)cc1 [Example 8]	0.4 (≈ 1.09 µM)		response vs control in vivo at 400 mg/kg [1, 5]: 147%
Cc1c(-c2ccc(-c3ccccc3)c(F)c2)nc2ccc(F)cc2c1C(=O)O [Example 210]		.03 µg/mL	L1210 Leukemia % T/C (median survival time) ([1]; 25 mg/kg i.p.): 177%
CCc1c(-c2ccc(-c3ccccc3)cc2)nc2ccc(F)cc2c1C(=O)O [Example 108]		0.10 µg/mL	L1210 Leukemia % T/C (median survival time) ([1]; 100 mg/kg i.p.): 166%
O=C(O)c1cc(-c2ccc(C3CCCCC3)cc2)nc2ccc(Cl)cc12 [Example 94]		0.65 µg/mL	response vs control in vivo at 100 mg/kg ([1]; Mus musculus, L1210, ip, 720 h, 100 mg/kg i.p., nonoptimal Q1DX9 instead of Q3DX9, read-out: L1210 Leukemia % T/C (median survival time)): 107%
Cc1c(-c2ccc(-c3ccccc3)cc2)nc2ccc(F)c(Cl)c2c1C(=O)O [Example 81, 2-(4-Biphenyl)-5-chloro-6-fluoro-3-methyl-4-quinolinecarboxylic acid]	< 0.5		response vs control in vivo at 25 mg/kg [1, 4]: 191%
O=C(O)c1cc(-c2ccc(-c3ccccc3)cc2)nc2ccc(F)cc12 [Example 33]	< 0.5		response vs control in vivo at 200 mg/kg [1, 5]: 170%
Cc1c(-c2ccc(-c3ccc(F)cc3)cc2)nc2ccc(F)cc2c1C(=O)O [Example 31]	< 0.5		L1210 Leukemia % T/C (median survival time) ([1]; 37.5 mg/kg i.p.): 218%
Cc1c(-c2ccc(Sc3ccccc3)cc2)nc2ccc(Cl)cc2c1C(=O)O [Example 173]		< 0.50 µg/mL	response vs control in vivo at 25 mg/kg [1, 8]: 122%
CCC(C)c1ccc(-c2nc3ccc(F)cc3c(C(=O)O)c2C)cc1 (centres unmarked) [Example 9]		0.07 µg/mL	response vs control in vivo at 200 mg/kg [1, 5]: 127%
Cc1c(-c2ccc(-c3ccccc3)cc2)nc2cc(Cl)ccc2c1C(=O)O [Example 139]		< 5.00 µg/mL	response vs control in vivo at 100 mg/kg [1, 6]: 146%
Cc1c(-c2ccc(-c3ccc(F)cc3)cc2)nc2cc(Cl)c(F)cc2c1C(=O)O [Example 54]	< 0.5		response vs control in vivo at 300 mg/kg [1, 5]: 125%
Cc1c(-c2ccc(Sc3ccccc3)cc2)nc2ccc(Cl)cc2c1C(=O)O [Example 111]	< 0.5		response vs control in vivo at 25 mg/kg [1, 4]: 125%
Cc1cc2c(C(=O)O)c(C)c(-c3ccc(Oc4ccccc4)cc3)nc2cc1Cl [Example 59]	> 5		response vs control in vivo at 300 mg/kg [1, 5]: 152%
Cc1ccc2c(C(=O)O)c(C)c(-c3ccc(-c4ccccc4)cc3)nc2c1 [Example 145]	< 0.5		response vs control in vivo at 75 mg/kg [1, 7]: 132%
Cc1c(-c2ccc(OCc3ccccc3)cc2)nc2ccc(F)cc2c1C(=O)O [Example 106]		1.20 µg/mL	response vs control in vivo at 25 mg/kg [1, 8]: 107%
Cc1c(-c2ccc(C3CCCCC3)cc2)nc2ccc(Cl)cc2c1C(=O)O [Example 3]		0.50 µg/mL	response vs control in vivo at 400 mg/kg [1, 5]: 207%
O=C(O)c1cc(-c2ccc(C3CCCCC3)cc2)nc2ccc(F)cc12 [Example 5]	0.02 (≈ 0.0572 µM)		response vs control in vivo at 400 mg/kg [1, 5]: 141%
Cc1c(-c2ccc(-c3ccccc3F)cc2)nc2ccc(F)cc2c1C(=O)O [Example 176]		< 0.50 µg/mL and 0.41 µg/mL	response vs control in vivo at 37 mg/kg ([1]; Mus musculus, L1210, ip, 720 h, 37 mg/kg i.p., read-out: L1210 Leukemia % T/C (median survival time)): 175%
